# Patent US10092570B2 (Incyte Corporation, priority 2011, dated 2018)
# Counter-ions that a name gives are not always drawn.
# Target: PI3Kδ (p110δ/p85α) (Homo sapiens (Human), UniProt O00329)
# Test: Example A3: PI3Kδ scintillation proximity assay
# Format: biochemical
# Conditions: scintillation proximity assay, 20 μM ATP, 4 nM PI3Kδ; read-out: PI3Kδ SPA IC50
# Experimental: [γ-^33P]ATP (10 mCi/mL) was purchased from Perkin-Elmer (Waltham, Mass.). […] PI3Kδ (p110δ/p85α) was purchased from Millipore (Bedford, Mass.). ATP, MgCl2, DTT, EDTA, MOPS and CHAPS were purchased from Sigma-Aldrich (St. Louis, Mo.). Wheat Germ Agglutinin (WGA) YSi SPA Scintillation Beads was purchased from GE healthcare life sciences (Piscataway, N.J.).
# The kinase reaction was conducted in polystyrene 384-well matrix white plate from Thermo Fisher Scientific in a final volume of 25 μL. Inhibitors were first diluted serially in DMSO and added to the plate wells before the addition of other reaction components. The final concentration of DMSO in the assay was 0.5%. The PI3K assays were carried out at room temperature in 20 mM MOPS, pH 6.7, 10 mM MgCl2, 5 mM DTT and CHAPS 0.03%. Reactions were initiated by the addition of ATP, the final reaction mixture consisted of 20 μM PIP2, 20 μM ATP, 0.2 μCi [γ-^33P] ATP, 4 nM PI3Kδ. […] 25 mM EDTA, 400 μM ATP. The final concentration of SPA beads was 1.0 mg/mL. After the plate sealing, plates were shaken overnight at room temperature and centrifuged at 1800 rpm for 10 minutes, the radioactivity of the product was determined by scintillation counting on Topcount (Perkin-Elmer). IC50 determination was performed by fitting the curve of percent control activity versus the log of the inhibitor concentration using the GraphPad Prism 3.0 software.
# Sequence of PI3Kδ (p110δ/p85α) (O00329 whole entry): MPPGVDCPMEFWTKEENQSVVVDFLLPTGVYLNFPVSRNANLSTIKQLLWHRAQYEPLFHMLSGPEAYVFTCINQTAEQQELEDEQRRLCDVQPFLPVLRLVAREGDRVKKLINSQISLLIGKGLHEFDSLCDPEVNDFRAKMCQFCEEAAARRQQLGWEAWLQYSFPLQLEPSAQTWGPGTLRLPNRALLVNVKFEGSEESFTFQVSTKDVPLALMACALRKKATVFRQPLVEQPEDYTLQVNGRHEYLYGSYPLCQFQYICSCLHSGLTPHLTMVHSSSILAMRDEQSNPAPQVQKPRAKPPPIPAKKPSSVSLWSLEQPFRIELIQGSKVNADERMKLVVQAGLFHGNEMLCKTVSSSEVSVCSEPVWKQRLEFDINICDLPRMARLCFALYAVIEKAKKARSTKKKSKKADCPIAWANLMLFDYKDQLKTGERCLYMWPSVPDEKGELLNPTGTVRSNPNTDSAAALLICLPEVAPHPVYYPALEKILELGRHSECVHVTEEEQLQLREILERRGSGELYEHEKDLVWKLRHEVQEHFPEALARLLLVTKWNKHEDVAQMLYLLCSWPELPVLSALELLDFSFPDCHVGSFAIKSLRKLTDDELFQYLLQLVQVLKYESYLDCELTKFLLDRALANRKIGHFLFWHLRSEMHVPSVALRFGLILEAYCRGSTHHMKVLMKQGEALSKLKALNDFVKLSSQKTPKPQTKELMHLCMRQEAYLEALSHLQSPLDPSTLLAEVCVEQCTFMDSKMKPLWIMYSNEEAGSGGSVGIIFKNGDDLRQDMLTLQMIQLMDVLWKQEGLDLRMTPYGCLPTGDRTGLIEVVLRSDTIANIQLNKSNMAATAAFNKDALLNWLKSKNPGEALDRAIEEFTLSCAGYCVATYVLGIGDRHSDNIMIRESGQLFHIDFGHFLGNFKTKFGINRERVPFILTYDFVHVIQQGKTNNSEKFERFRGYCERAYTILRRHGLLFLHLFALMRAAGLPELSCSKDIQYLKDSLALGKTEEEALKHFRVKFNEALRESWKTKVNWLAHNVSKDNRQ
# Sequence of PI3Kδ (p110δ/p85α) (P27986 whole entry partner): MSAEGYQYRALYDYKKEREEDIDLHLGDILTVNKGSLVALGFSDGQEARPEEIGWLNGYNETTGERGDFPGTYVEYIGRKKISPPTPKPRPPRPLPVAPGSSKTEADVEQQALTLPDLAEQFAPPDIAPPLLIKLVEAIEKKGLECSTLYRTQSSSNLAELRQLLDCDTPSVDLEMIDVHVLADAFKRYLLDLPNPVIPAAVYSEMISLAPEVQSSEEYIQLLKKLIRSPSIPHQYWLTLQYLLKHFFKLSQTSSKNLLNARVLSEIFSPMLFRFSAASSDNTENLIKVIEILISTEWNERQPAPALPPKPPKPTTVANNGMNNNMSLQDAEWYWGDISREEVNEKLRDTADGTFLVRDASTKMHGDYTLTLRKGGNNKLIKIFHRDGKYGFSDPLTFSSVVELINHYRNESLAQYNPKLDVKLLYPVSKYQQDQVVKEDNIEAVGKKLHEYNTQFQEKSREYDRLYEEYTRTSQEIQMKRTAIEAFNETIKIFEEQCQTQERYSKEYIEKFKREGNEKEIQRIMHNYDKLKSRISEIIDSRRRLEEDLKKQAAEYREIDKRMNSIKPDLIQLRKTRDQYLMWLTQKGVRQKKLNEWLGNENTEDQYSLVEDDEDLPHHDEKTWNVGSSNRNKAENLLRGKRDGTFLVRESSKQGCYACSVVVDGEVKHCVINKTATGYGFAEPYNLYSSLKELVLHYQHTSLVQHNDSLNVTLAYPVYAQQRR
row,SMILES,IC50 [nM]
1,"CCOc1c(C(C)n2nc(C)c3c(N)ncnc32)cc(Cl)c(C#N)c1C1CN(CC#N)C1 (single isomer, unassigned) [Example 235, 4-[1-(4-Amino-3-methyl-1H-pyrazolo[3,4-d]pyrimidin-1-yl)ethyl]-6-chloro-2-[1-(cyanomethyl)azetidin-3-yl]-3-ethoxybenzonitrile]",< 10
2,"COc1c(C(C)n2nc(C)c3c(N)ncnc32)cc(Cl)c(C)c1C1CNC(=O)O1 (centres unmarked) [Example 325, 5-{3-[1-(4-Amino-3-methyl-1H-pyrazolo[3,4-d]pyrimidin-1-yl)ethyl]-5-chloro-2-methoxy-6-methylphenyl}-1,3-oxazolidin-2-one]",< 10
3,"COc1c(C(C)n2nc(C)c3c(N)ncnc32)cc(Cl)c(C)c1-c1ccc(C(=O)NCCO)nc1 (centres unmarked) [Example 23, 5-(3-(1-(4-amino-3-methyl-1H-pyrazolo[3,4-d]pyrimidin-1-yl)ethyl)-5-chloro-2-methoxy-6-methylphenyl)-N-(2-hydroxyethyl)picolinamide trifluoroacetate]",< 10
4,"CCOc1c(C(C)n2nc(C)c3c(N)ncnc32)cc(C)c(C#N)c1C1CN(C(C)C)C1 (racemic) [Example 320, 4-[1-(4-amino-3-methyl-1H-pyrazolo[3,4-d]pyrimidin-1-yl)ethyl]-3-ethoxy-2-(1-isopropylazetidin-3-yl)-6-methylbenzonitrile]",< 10
5,"CCOc1c(C(C)n2nc(C)c3c(N)ncnc32)cc(Cl)c(C#N)c1N1CC(OC)C1 (centres unmarked) [Example 319, 4-[1-(4-amino-3-methyl-1H-pyrazolo[3,4-d]pyrimidin-1-yl)ethyl]-6-chloro-3-ethoxy-2-(3-methoxyazetidin-1-yl)benzonitrile]",< 10
6,"COc1c(C(C)n2nc(C)c3c(N)ncnc32)cc(Cl)c(C#N)c1C1CN(C(C)=O)C1 (single isomer, unassigned) [Example 281, 2-(1-Acetylazetidin-3-yl)-4-[1-(4-amino-3-methyl-1H-pyrazolo[3,4-d]pyrimidin-1-yl)ethyl]-6-chloro-3-methoxybenzonitrile]",< 10
7,"CCNC(=O)c1c(C)c(Cl)cc(C(C)n2nc(-c3cn[nH]c3)c3c(N)ncnc32)c1OCC (racemic) [Example 87, 3-{1-[4-Amino-3-(1H-pyrazol-4-yl)-1H-pyrazolo[3,4-d]pyrimidin-1-yl]ethyl}-5-chloro-2-ethoxy-N-ethyl-6-methylbenzamide]",< 10
8,"CCNC(=O)c1c(C)c(Cl)cc(C(C)n2nc(-c3ccc4[nH]ccc4c3)c3c(N)ncnc32)c1OCC (racemic) [Example 93, 3-{1-[4-Amino-3-(1H-indol-5-yl)-1H-pyrazolo[3,4-d]pyrimidin-1-yl]ethyl}-5-chloro-2-ethoxy-N-ethyl-6-methylbenzamide]",< 10
9,"COc1c(C(C)n2nc(C(F)F)c3c(N)ncnc32)cc(C#N)c(C)c1C1CN(C[C@H](C)O)C1 (stereo partly drawn) [Example 131, 5-{1-[4-Amino-3-(difluoromethyl)-1H-pyrazolo[3,4-d]pyrimidin-1-yl]ethyl}-3-{1-[(2S)-2-hydroxypropyl]azetidin-3-yl}-4-methoxy-2-methylbenzonitrile]",< 10
10,"COc1c(C(C)n2nc(C)c3c(N)ncnc32)cc(Cl)c(C)c1C1CN(C(CO)C(F)(F)F)C1 (centres unmarked) [Example 113, 2-(3-{3-[1-(4-Amino-3-methyl-1H-pyrazolo[3,4-d]pyrimidin-1-yl)ethyl]-5-chloro-2-methoxy-6-methylphenyl}azetidin-1-yl)-3,3,3-trifluoropropan-1-ol]",< 10
11,"CCOc1c(C(C)n2nc(C)c3c(N)ncnc32)cc(Cl)c(F)c1C1COC(=O)N1 (single isomer, unassigned) [Example 353, 4-{3-[1-(4-amino-3-methyl-1H-pyrazolo[3,4-d]pyrimidin-1-yl)ethyl]-5-chloro-2-ethoxy-6-fluorophenyl}-1,3-oxazolidin-2-one]",> 500
12,"COc1c(C(C)n2nc(C)c3c(N)ncnc32)cc(Cl)c(C)c1C1CN(CC#N)C1 (single isomer, unassigned) [Example 105, (3-{3-[1-(4-Amino-3-methyl-1H-pyrazolo[3,4-d]pyrimidin-1-yl)ethyl]-5-chloro-2-methoxy-6-methylphenyl}azetidin-1-yl)acetonitrile]",< 10
13,"COc1c(C(C)n2nc(C)c3c(N)ncnc32)cc(Cl)c(C)c1-c1cnn(C2CCN(C(C)=O)CC2)c1 (single isomer, unassigned) [Example 182, 1-(1-{3-[1-(1-Acetylpiperidin-4-yl)-1H-pyrazol-4-yl]-5-chloro-2-methoxy-4-methylphenyl}ethyl)-3-methyl-1H-pyrazolo[3,4-d]pyrimidin-4-amine]",< 10
14,"CCOc1c(C(C)n2nc(C)c3c(N)ncnc32)cc(Cl)c(C#N)c1C1CN(CC2CC2)C1 (single isomer, unassigned) [Example 217, 4-[1-(4-Amino-3-methyl-1H-pyrazolo[3,4-d]pyrimidin-1-yl)ethyl]-6-chloro-2-[1-(cyclopropylmethyl)azetidin-3-yl]-3-ethoxybenzonitrile]",< 10
15,"COc1c(C(C)n2nc(C)c3c(N)ncnc32)cc(Cl)c(C)c1-c1cncc(C(=O)N(C)C)c1 (single isomer, unassigned) [Example 65, 5-{3-[1-(4-amino-3-methyl-1H-pyrazolo[3,4-d]pyrimidin-1-yl)ethyl]-5-chloro-2-methoxy-6-methylphenyl}-N,N-dimethylnicotinamide]",< 10
16,COc1c(C(C)n2nc(C)c3c(N)ncnc32)cc(Cl)c(F)c1C1CN(C)C1 (centres unmarked) [Example 72],< 10
17,"CCOc1c(C(C)n2nc(-c3cncc(C#N)c3)c3c(N)ncnc32)cc(Cl)c(C)c1-c1ccc(C(=O)N(C)C)nc1 (centres unmarked) [Example 57, 5-(3-{1-[4-amino-3-(5-cyanopyridin-3-yl)-1H-pyrazolo[3,4-d]pyrimidin-1-yl]ethyl}-5-chloro-2-ethoxy-6-methylphenyl)-N,N-dimethylpyridine-2-carboxamide tris(trifluoroacetate)]",< 10
18,"CCOc1c(C(C)n2nc(I)c3c(N)ncnc32)cc(Cl)c(C)c1-c1ccc(C(=O)N(C)C)nc1 (racemic) [Example 15, 5-{3-[1-(4-Amino-3-iodo-1H-pyrazolo[3,4-d]pyrimidin-1-yl)ethyl]-5-chloro-2-ethoxy-6-methylphenyl}-N,N-dimethylpyridine-2-carboxamide]",< 10
19,"COc1c(C(C)n2nc(C)c3c(N)ncnc32)cc(C)c(C#N)c1C1CN(CC(C)(C)O)C1 (stereo not drawn) [Example 328, 4-[-1-(4-amino-3-methyl-1H-pyrazolo[3,4-d]pyrimidin-1-yl)ethyl]-2-[l-(2-hydroxy-2-methylpropyl)azetidin-3-yl]-3-methoxy-6-methylbenzonitrile]",< 10
20,"CCOc1c(C(C)n2nc(C(F)F)c3c(N)ncnc32)cc(Cl)c(C)c1-c1ccc(C(=O)N(C)C)nc1 (racemic) [Example 82, 5-(3-{1-[4-Amino-3-(difluoromethyl)-1H-pyrazolo[3,4-d]pyrimidin-1-yl]ethyl}-5-chloro-2-ethoxy-6-methylphenyl)-N,N-dimethylpyridine-2-carboxamide bis(trifluoroacetate)]",< 10
21,"COc1c(C(C)n2nc(C)c3c(N)ncnc32)cc(Cl)c(C#N)c1C1CNC1 (single isomer, unassigned) [Example 261, 4-[1-(4-Amino-3-methyl-1H-pyrazolo[3,4-d]pyrimidin-1-yl)ethyl]-2-azetidin-3-yl-6-chloro-3-methoxybenzonitrile]",< 10
22,"CNC(=O)CCc1c(C)c(Cl)cc(C(C)n2nc(C)c3c(N)ncnc32)c1OC (single isomer, unassigned) [Example 179, 3-(3-(1-(4-Amino-3-methyl-1H-pyrazolo[3,4-d]pyrimidin-1-yl)ethyl)-5-chloro-2-methoxy-6-methylphenyl)-N-methylpropanamide 2,2,2-trifluoroacetate]",< 10
23,"CCOc1c(C(C)n2nc(C)c3c(N)ncnc32)cc(Cl)c(C#N)c1C1CN(C(=O)C(C)(C)O)C1 (single isomer, unassigned) [Example 247, 4-[1-(4-Amino-3-methyl-1H-pyrazolo[3,4-d]pyrimidin-1-yl)ethyl]-6-chloro-3-ethoxy-2-[1-(2-hydroxy-2-methylpropanoyl)azetidin-3-yl]benzonitrile]",< 10
24,"COc1c(C(C)n2nc(C)c3c(N)ncnc32)cc(Cl)c(C)c1C1CN([C@@H](C)C(=O)N(C)C)C1 (stereo partly drawn) [Example 160, (2S)-2-(3-{3-[1-(4-Amino-3-methyl-1H-pyrazolo[3,4-d]pyrimidin-1-yl)ethyl]-5-chloro-2-methoxy-6-methylphenyl}azetidin-1-yl)-N,N-dimethylpropanamide]",< 10
25,"CCOc1c(C(C)n2nc(C)c3c(N)ncnc32)cc(Cl)c(C#N)c1-c1cncnc1 (racemic) [Example 329, 4-[1-(4-amino-3-methyl-1H-pyrazolo[3,4-d]pyrimidin-1-yl)ethyl]-6-chloro-3-ethoxy-2-pyrimidin-5-ylbenzonitrile]",< 10
26,"COc1c(C(C)n2nc(C(F)F)c3c(N)ncnc32)cc(C#N)c(C)c1C1CN(C(C)=O)C1 (racemic) [Example 138, 3-(1-Acetylazetidin-3-yl)-5-{1-[4-amino-3-(difluoromethyl)-1H-pyrazolo[3,4-d]pyrimidin-1-yl]ethyl}-4-methoxy-2-methylbenzonitrile]",< 10
